According to the RepoRT retention time repository (doi:10.1021/acs.analchem.2c02893):

test: RP, Thermo Scientific Acclaim RSLC 120 C18, 100 × 2.1 mm, 2.2 µm, 30 °C, 0.2 mL/min, estimated dead time 1.1 min; A: 90% water + 10% methanol + 0.01% formic acid + 5 mM ammonium formate, pH 3.61; B: methanol + 0.01% formic acid + 5 mM ammonium formate, pH 3.61; gradient (min/%B) 0/1 1/1 2/39 13/99.9 15/99.9 15.1/1 20.1/1; settings: stereoisomer not certain

| Compound | LC retention time [min] |
| --- | --- |
| CNC(=O)Oc1cccc2c1OC(C)(C)C2O (stereo not drawn) [Carbofuran-3-hydroxy] | 5.09 |
| CCC(=O)C1(c2cccc(O)c2)CCN(C)CC1 [Ketobemidone] | 4.26 |
| CC(C)(C)Nc1nc(N)[nH]c(=O)n1 [Terbuthylazine-desethyl-2-hydroxy] | 3.99 |
| COP(=S)(OC)Oc1ccc([N+](=O)[O-])cc1Cl [Dicapthon] | 10.5 |
| CCOP(=S)(OCC)SC(CCl)N1C(=O)c2ccccc2C1=O (stereo not drawn) [Dialifos] | 11.5 |
| COc1ccc(Cl)cc1C(=O)NCCc1ccc(S(=O)(=O)NC(=O)NC2CCCCC2)cc1 [Glibenclamide] | 9.98 |
| NS(=O)(=O)c1cc(C(=O)O)cc(N2CCCC2)c1Oc1ccccc1 [Piretanide] | 7.17 |
| COc1ccc(NC(=O)N(C)C)cc1Cl [Metoxuron] | 6.17 |
| CCCC(NC)C(=O)c1ccc2c(c1)OCO2 (stereo not drawn) [Pentylone] | 4.99 |
| CC1CC2C(C(O)CC3(C)C2CCC3(O)C(=O)CO)C2(C)C=CC(=O)C=C12 (stereo not drawn) [Prednisolone-Methyl] | 8.75 |
| COCCOc1ccccc1S(=O)(=O)NC(=O)Nc1nc(OC)nc(OC)n1 [Cinosulfuron] | 6.36 |
| CN(C)C(CSS(=O)(=O)c1ccccc1)CSS(=O)(=O)c1ccccc1 [Bensultap] | 9.6 |
| O=C(NC(=O)c1c(F)cccc1F)Nc1cc(Cl)c(Oc2ncc(C(F)(F)F)cc2Cl)c(Cl)c1 [Chlorfluazuron] | 13.2 |
| CC=C1CC(C)C(O)(CO)C(=O)OCC2=CC[N+]3([O-])CCC(OC1=O)C23 (stereo not drawn) [Retrorsine-N-oxide] | 4.33 |
| Cc1nc(C)c(Cl)c(NS(=O)(=O)c2ccc(N)cc2)n1 [Sulfaclomide] | 3.96 |
| CCCc1nn(C)c2c(=O)[nH]c(-c3cc(C(=O)CN4CCCCC4)ccc3OCC)nc12 [Piperiacetildenafil] | 7.14 |
| O=C1OCCN1N=Cc1ccc([N+](=O)[O-])o1 [Furazolidone] | 4.19 |
| CC(CN1c2ccccc2Sc2ccc(S(=O)(=O)N(C)C)cc21)N(C)C (stereo not drawn) [Dimetotiazine] | 7.01 |
| CCCCSP(=O)(SCCCC)SCCCC [Tribufos (Merphos oxide. DEF)] | 13.4 |
| CC=CC(=O)Oc1c(C(C)CCCCCC)cc([N+](=O)[O-])cc1[N+](=O)[O-] (stereo not drawn) [Dinocap] | 13.1 |
| N#CCCCCn1cc(C(=O)c2cccc3ccccc23)c2ccccc21 [AM-2232] | 9.69 |

| Compound | LC retention time [min] |
| --- | --- |
| CC1CCN(CCCC(=O)c2ccc(F)cc2)CC1 [Melperone] | 5.21 |
| Cc1cc(C2CC2)nc(Nc2ccccc2)n1 [Cyprodinil] | 11 |
| NC1CCC(c2ccc(Cl)c(Cl)c2)c2ccccc21 (stereo not drawn) [Sertraline-Desmethyl] | 9.02 |
| Nc1ccc(S(=O)(=O)NC(=O)c2ccccc2)cc1 [Sulfabenzamide] | 4.72 |
| Cc1[nH]c(=O)n(C(C)(C)C)c(=O)c1Cl [Terbacil] | 7.33 |
| CCNC(C)Cc1ccc2c(c1)OCO2 (stereo not drawn) [MDEA] | 4.39 |
| CCOc1nc2cccc(C(=O)OC(C)OC(=O)OC3CCCCC3)c2n1Cc1ccc(-c2ccccc2-c2nn[nH]n2)cc1 (stereo not drawn) [Candesartan cilexetil] | 12.2 |
| O=C(Nc1ccccc1-c1ccc(Cl)cc1)c1cccnc1Cl [Boscalid] | 9.4 |
| CCCc1nn(C)c2c(=O)[nH]c(-c3cc(C(=O)CN4CC(C)NC(C)C4)ccc3OCC)nc12 (stereo not drawn) [Acetildenafil-Dimethyl] | 7.5 |
| CC(=O)OCCC(SC(C)=O)=C(C)N(C=O)Cc1cnc(C)nc1N [Acetiamine] | 4.46 |
| C[N+]12CCC(CC1)C(OC(=O)C(O)(c1ccccc1)c1ccccc1)C2 (stereo not drawn) [Clidinium (I+)] | 5.84 |
| CN(C)C1C(=O)C(C(N)=O)=C(O)C2(O)C(=O)C3=C(O)c4c(O)ccc(Cl)c4C(C)(O)C3CC12 (stereo not drawn) [Chlortetracycline] | 4.5 |
| O=[N+]([O-])c1ccc(Oc2ccc(Cl)cc2Cl)cc1 [Nitrofen] | 12.1 |
| COC(=O)NC(=S)Nc1ccccc1NC(=S)NC(=O)OC [Thiophanate-methyl] | 6.93 |
| CNC(C)Cc1ccc(O)c(OC)c1 (stereo not drawn) [HMMA] | 3.19 |
| CC(C)(C)NCC(O)COc1cccc2c1CC(O)C(O)C2 (stereo not drawn) [Nadolol] | 4.29 |
| C=CCN1CCCC1CNC(=O)c1cc2n[nH]nc2cc1OC (stereo not drawn) [Alizapride] | 3.62 |
| COc1cc2nc(N3CCN(C(=O)C4CCCO4)CC3)nc(N)c2cc1OC (stereo not drawn) [Terazosin] | 4.92 |
| CC1(C)OC2CC3C4CCC5=CC(=O)C=CC5(C)C4(F)C(O)CC3(C)C2(C(=O)CO)O1 (stereo not drawn) [Triamcinolone acetonide] | 8.69 |
| CCCOc1ccc(S(=O)(=O)N2CCN(CC)CC2)cc1-c1nc(=S)c2c([nH]1)c(CCC)nn2C [Propoxyphenyl Thiohomosidenafil] | 10.5 |
| CC=CC(=O)N(CC)C(CC)C(=O)N(C)C (stereo not drawn) [Crotethamide] | 6.13 |

| Compound | LC retention time [min] |
| --- | --- |
| Cc1ccccc1C(=O)Nc1cccc(OC(C)C)c1 [Mepronil] | 9.62 |
| C#CCNC(C)Cc1ccccc1 (stereo not drawn) [Deprenyl-Nor] | 4.66 |
| COc1ccc(NS(=O)(=O)c2ccc(N)cc2)nn1 [Sulfamethoxypyridazine] | 4.38 |
| CN(C)CCOC(C)(c1ccccc1)c1ccccn1 (stereo not drawn) [Doxylamine] | 5.18 |
| CC(Cc1ccccc1)NCCC(c1ccccc1)c1ccccc1 (stereo not drawn) [Prenylamine] | 8.89 |
| COc1ccccc1OCC(O)CO (stereo not drawn) [Guaifenesin] | 5.11 |
| COc1ccc(CC(C)N)cc1 (stereo not drawn) [PMA] | 4.34 |
| CC(C)(C)C(=O)C(Oc1ccc(Cl)cc1)n1ccnc1 (stereo not drawn) [Climbazole] | 10.1 |
| O=C1Nc2ccc([N+](=O)[O-])cc2C(c2ccccc2F)=NC1O (stereo not drawn) [Nifoxipam] | 6.58 |
| CN(C)C(=O)Nc1ccc(Oc2ccc(Cl)cc2)cc1 [Chloroxuron (Chloroxifenidim)] | 9.99 |
| NC(=O)c1ccccc1O [Salicylamide] | 4.76 |
| CCOC(=O)NC(=S)Nc1ccccc1NC(=S)NC(=O)OCC [Thiophanate-ethyl] | 8.61 |
| COc1ccc2c(c1)c(CC(=O)OCC(=O)O)c(C)n2C(=O)c1ccc(Cl)cc1 [Acemetacin] | 9.9 |
| COP(=S)(OC)Oc1ccc(S(C)=O)c(C)c1 (stereo not drawn) [Fenthion-sulfoxide] | 7.28 |
| CNC(=O)ON=C(CSC)C(C)(C)C [Thiofanox] | 7.8 |
| CC=C1CC(C)C(C)(O)C(=O)OCC2=CCN3CCC(OC1=O)C23 (stereo not drawn) [Senecionine] | 4.62 |
| c1ccc2c(CC3=NCCN3)cccc2c1 [Naphazoline] | 4.84 |
| CC(CCN1CCOCC1)OC(=O)C1(c2ccccc2)CCOCC1 (stereo not drawn) [Fedrilate] | 6.12 |
| COCCC(N)C(=O)O (stereo not drawn) [AMB] | 11.8 |
| COc1nc(C)nc(NC(=O)NS(=O)(=O)c2ccccc2OCCCl)n1 [Triasulfuron] | 6.6 |
| CC=C1CC(C)C(C)(O)C(=O)OCC2=CC[N+]3([O-])CCC(OC1=O)C23 (stereo not drawn) [Senecionine-N-oxide] | 5.07 |

| Compound | LC retention time [min] |
| --- | --- |
| O=C(c1cccc2ccccc12)c1cn(CCCCO)c2ccccc12 [JWH-073-M-4-OH-Butyl] | 9.56 |
| CC(C)Nc1nc(Cl)nc(NC(C)C)n1 [Propazine] | 9.16 |
| COP(=O)(OC)OC(C)=CC(=O)OC(C)c1ccccc1 (stereo not drawn) [Crotoxyphos] | 9.39 |
| CC(=O)Nc1ccc(OC(=O)c2ccccc2OC(C)=O)cc1 [Benorilate] | 7.41 |
| NC(=O)N1c2ccccc2C2OC2c2ccccc21 (stereo not drawn) [Carbamazepine-10.11-epoxide] | 6.04 |
| CN(C)CCC=C1c2ccccc2COc2ccc(CC(=O)O)cc21 [Olopatadine] | 6.89 |
| CC(O)(C(N)=O)c1ccccc1 (stereo not drawn) [M-144] | 12.9 |
| N#Cc1ccc(CC(=NNC(=O)Nc2ccc(OC(F)(F)F)cc2)c2cccc(C(F)(F)F)c2)cc1 [Metaflumizone] | 12.1 |
| CCCCCn1cc(C(=O)Cc2ccccc2C)c2ccccc21 [JWH-251] | 12.2 |
| CSc1nnc(C(C)(C)C)c(=O)[nH]1 [Metribuzin-Desamino (DA)] | 7.46 |
| CCOc1ccccc1OC(c1ccccc1)C1CNCCO1 (stereo not drawn) [Reboxetine] | 7.28 |
| CC(=O)N(CC(O)CN(C(C)=O)c1c(I)c(C(=O)NCC(O)CO)c(I)c(C(=O)NCC(O)CO)c1I)c1c(I)c(C(=O)NCC(O)CO)c(I)c(C(=O)NCC(O)CO)c1I (stereo not drawn) [Iodixanol] | 3.56 |
| Cc1c(N)c(=O)n(-c2ccccc2)n1C [Antipyrine-4-Amino (4-AAP)] | 4.69 |
| O=C(c1cccc2ccccc12)c1nn(CCCCCF)c2ccccc12 [THJ-2201] | 11.9 |
| Nc1c(Cl)c(F)nc(OCC(=O)O)c1Cl [Fluroxypyr] | 5.43 |
| CCc1ccc(C(=O)NN(C(=O)c2cc(C)cc(C)c2)C(C)(C)C)cc1 [Tebufenozide] | 10.4 |
| CCC1(c2ccccc2)C(=O)NCNC1=O [Primidone] | 5.29 |
| CC12Cc3cn[nH]c3CC1CCC1C2CCC2(C)C1CCC2(C)O (stereo not drawn) [Stanozolol] | 11.3 |
| CC(C)NCC(O)COc1ccc(CC(N)=O)cc1 (stereo not drawn) [Atenolol] | 3.09 |
| O=C(Nc1ccc([N+](=O)[O-])cc1Cl)c1cc(Cl)ccc1O [Niclosamide] | 12.6 |
